The numbers were not newly measured in patent EP1854876A2, “Genetically engineered glutaminase and its use in antiviral and anticancer therapy” (ME MEDICAL ENZYMES AG, priority 1992, dated 1994), which cites them from elsewhere.

Where only a bound is given, the exact number is not on record here.

For data set [1], the system named is E. coli asparaginase, ineffective form. The conditions noted are these: substrate not given.
Data set [2] addresses Pseudomonas 7A glutaminase-asparaginase (Pseudomonas sp., UniProt P10182). The conditions noted are these: described as low.
Data set [3] has as its system known mammalian glutaminase enzymes. To be noted: described as high; substrate not given.
In the next data set the target is E. coli glutaminase A (Escherichia coli, UniProt P77454). The conditions noted are these: described as high; substrate not given.
E. coli glutaminase A, sequence (P77454 whole entry): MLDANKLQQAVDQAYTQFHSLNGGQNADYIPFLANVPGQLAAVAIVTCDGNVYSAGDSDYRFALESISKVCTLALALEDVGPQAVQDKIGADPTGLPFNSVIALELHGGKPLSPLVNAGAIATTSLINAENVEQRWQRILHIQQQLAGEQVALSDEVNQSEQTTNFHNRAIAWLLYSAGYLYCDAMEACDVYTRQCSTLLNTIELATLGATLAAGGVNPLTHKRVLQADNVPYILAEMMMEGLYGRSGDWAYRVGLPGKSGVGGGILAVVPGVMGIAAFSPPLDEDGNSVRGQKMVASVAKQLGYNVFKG
The target in another data set is E. coli glutaminase B (Escherichia coli, UniProt P0A6W0). To be noted: described as high; substrate not given.
E. coli glutaminase B, sequence (P0A6W0 whole entry): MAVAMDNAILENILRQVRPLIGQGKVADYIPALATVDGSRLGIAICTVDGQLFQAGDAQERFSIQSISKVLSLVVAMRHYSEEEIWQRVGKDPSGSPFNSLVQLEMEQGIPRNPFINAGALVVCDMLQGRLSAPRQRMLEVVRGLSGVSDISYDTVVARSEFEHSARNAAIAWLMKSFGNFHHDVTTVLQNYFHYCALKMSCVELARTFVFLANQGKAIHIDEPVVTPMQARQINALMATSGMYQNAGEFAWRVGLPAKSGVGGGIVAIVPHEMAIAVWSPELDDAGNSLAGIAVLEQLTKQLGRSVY

Pseudomonas 7A glutaminase-asparaginase, sequence (P10182 whole entry): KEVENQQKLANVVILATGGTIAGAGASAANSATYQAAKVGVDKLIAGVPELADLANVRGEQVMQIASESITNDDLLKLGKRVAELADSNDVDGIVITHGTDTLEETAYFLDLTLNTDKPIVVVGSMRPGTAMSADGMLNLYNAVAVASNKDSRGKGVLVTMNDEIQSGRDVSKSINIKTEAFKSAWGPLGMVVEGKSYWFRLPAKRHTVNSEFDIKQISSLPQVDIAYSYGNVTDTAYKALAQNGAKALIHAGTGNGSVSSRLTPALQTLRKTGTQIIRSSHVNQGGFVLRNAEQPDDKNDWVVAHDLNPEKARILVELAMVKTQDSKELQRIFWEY

In the case of `NC(=O)C[C@H](N)C(=O)O` [asparagine], the Km in data set [1] is > 1000 µM.
In the case of `NC(=O)CC[C@H](N)C(=O)O` [glutamine], the KM for glutamine entry in data set [2] was “micromolar range”. The KM result (in data set [3]; on E. coli glutaminase A; on E. coli glutaminase B) was “millimolar range” each time.

What is called Km is the concentration of substrate that gives half-maximal velocity.
